Tests used:
[1] = target: MRPP1N (N domain of MRPP1), expressed alone (human) (UniProt Q7L0Y3); assay: SEC; analytical SEC of single proteins, Superdex S200 10/300 GL (or KW403-4F), apparent mass from standards of known Mr, n = 3
MRPP1MT+C(Δ194) = target: T1, MRPP1MT+C(Δ194) (Homo sapiens, UniProt Q7L0Y3); assay: differential scanning fluorimetry; type: binding; conditions: pH 7.5, 150 mM NaCl
T1 construct: gene TRMT10C; methyltransferase domain with C extension, residues 195-403, N-terminal His6 vector, E. coli; monomer
T1 sequence (Q7L0Y3 195-403): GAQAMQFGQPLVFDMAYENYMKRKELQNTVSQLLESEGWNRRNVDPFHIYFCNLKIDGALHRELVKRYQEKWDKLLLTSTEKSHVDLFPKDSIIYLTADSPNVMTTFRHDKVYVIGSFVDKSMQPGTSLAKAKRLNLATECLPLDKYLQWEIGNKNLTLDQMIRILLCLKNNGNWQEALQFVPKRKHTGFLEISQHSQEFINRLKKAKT

MRPP1ΔMTS = target: T2, MRPP1ΔMTS (Homo sapiens, UniProt Q7L0Y3); assay: differential scanning fluorimetry; type: binding; conditions: 7.5 mM SAM; pH 7.5, 150 mM NaCl
T2 construct: gene TRMT10C; mature protein without mitochondrial targeting signal, residues 40-403, N-terminal His6 vector, E. coli; monomer/dimer mixture
T2 sequence (Q7L0Y3 40-403): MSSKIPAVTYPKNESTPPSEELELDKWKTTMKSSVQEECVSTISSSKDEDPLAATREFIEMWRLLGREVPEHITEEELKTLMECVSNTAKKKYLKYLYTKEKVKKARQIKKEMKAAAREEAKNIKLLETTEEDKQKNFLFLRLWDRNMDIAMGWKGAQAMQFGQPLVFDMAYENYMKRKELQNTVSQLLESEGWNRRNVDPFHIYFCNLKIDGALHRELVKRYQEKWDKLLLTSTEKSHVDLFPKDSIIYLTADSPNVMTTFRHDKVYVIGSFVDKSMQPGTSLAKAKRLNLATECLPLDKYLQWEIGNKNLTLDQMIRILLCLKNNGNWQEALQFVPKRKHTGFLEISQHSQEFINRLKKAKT

MRPP1MT+C(Δ202) = target: T3, MRPP1MT+C(Δ202) (Homo sapiens, UniProt Q7L0Y3); assay: X-ray crystal structure, […] Å; type: binding; conditions: co-crystallised with SAM, 4 °C
T3 construct: gene TRMT10C; methyltransferase domain with C extension, residues 203-403, N-terminal His6 vector, E. coli; residues 380-403 disordered; monomer
T3 sequence (Q7L0Y3 203-403): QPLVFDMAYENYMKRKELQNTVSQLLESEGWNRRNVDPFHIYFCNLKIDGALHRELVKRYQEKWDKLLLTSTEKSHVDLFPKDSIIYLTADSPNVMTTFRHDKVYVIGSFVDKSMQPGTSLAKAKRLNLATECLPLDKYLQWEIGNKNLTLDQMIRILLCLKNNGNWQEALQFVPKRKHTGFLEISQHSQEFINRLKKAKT

[2] = target: T4, MRPP1ΔMTS–MRPP2 complex (SAM site / MTase activity of MRPP1) (Homo sapiens, UniProt Q7L0Y3); assay: differential scanning fluorimetry; type: binding; conditions: pH 7.5, 150 mM NaCl
T4 construct: gene TRMT10C; co-expressed in E. coli; His-tagged mature MRPP1 (40-403) and untagged full-length MRPP2; 2:4 complex, 194 kDa by SEC-MALS; with 3-hydroxyacyl-CoA dehydrogenase type-2
T4 sequence (Q7L0Y3 40-403): T2 sequence (Q7L0Y3 40-403)
T4 sequence (Q99714 2-261 partner): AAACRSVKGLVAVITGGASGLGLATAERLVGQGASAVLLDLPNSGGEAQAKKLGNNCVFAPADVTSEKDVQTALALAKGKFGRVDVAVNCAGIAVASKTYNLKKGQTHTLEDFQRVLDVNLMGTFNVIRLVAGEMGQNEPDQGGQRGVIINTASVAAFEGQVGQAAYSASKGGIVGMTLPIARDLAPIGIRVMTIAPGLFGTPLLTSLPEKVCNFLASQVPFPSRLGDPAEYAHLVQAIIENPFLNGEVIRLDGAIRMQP

[3] = target: T5, MRPP1ΔMTS–MRPP2 complex (SDR activity of MRPP2) (Homo sapiens, UniProt Q99714); assay: differential scanning fluorimetry; type: binding; conditions: pH 7.5, 150 mM NaCl
T5 construct: gene HSD17B10; co-expressed in E. coli; His-tagged mature MRPP1 (40-403) and untagged full-length MRPP2; 2:4 complex, 194 kDa by SEC-MALS; with tRNA methyltransferase 10 homolog C
T5 sequence (Q99714 2-261): T4 sequence (Q99714 2-261 partner)
T5 sequence (Q7L0Y3 40-403 partner): T2 sequence (Q7L0Y3 40-403)

[4] = substrate: CC(=O)[C@H]1CC[C@H]2[C@@H]3CC[C@H]4C[C@H](O)CC[C@]4(C)[C@H]3CC[C@]12C; assay: 3alpha-HSD (SDR) activity, fluorescence, Michaelis-Menten fit; type: biochemical, Homo sapiens; conditions: MRPP2 alone
Source text: 3alpha-HSD (SDR) activity, fluorescence, Michaelis-Menten fit on MRPP2 | measured using the neurosteroid allopregnanolone as MRPP2 substrate

[5] = substrate: CC(=O)[C@H]1CC[C@H]2[C@@H]3CC[C@H]4C[C@H](O)CC[C@]4(C)[C@H]3CC[C@]12C; assay: as above; type: biochemical, Homo sapiens; conditions: in complex with MRPP1ΔMTS
[6] = target: T6, MRPP2, untagged, co-expressed with His-tagged MRPP1 constructs (bicistronic plasmid) (human), Q99714; assay: SEC-SAXS; KW403-4F column in line with SAXS, 4.5 mg/ml; 50 mM sodium phosphate pH 7.4, 300 mM NaCl, 5% glycerol, 1% sucrose, 0.5 mM TCEP (for MRPP1, MRPP2 and MRPP1–MRPP2; buffer for MRPP3 alone not told); no tRNA; conditions: remark: other sources report otherwise
T6 chain: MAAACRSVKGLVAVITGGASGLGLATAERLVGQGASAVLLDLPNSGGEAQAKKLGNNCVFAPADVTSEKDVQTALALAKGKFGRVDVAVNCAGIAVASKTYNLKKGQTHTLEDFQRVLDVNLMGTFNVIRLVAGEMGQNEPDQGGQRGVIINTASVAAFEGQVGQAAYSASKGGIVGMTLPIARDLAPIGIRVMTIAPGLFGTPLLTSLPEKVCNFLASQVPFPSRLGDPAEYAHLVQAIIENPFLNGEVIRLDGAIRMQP

[7] = target: T7, MRPP2 (HSD17B10), expressed alone, tag removed (human), Q99714; assay: as above; conditions: remark: other sources report otherwise
T7 chain: T6 chain

[8] = target: the molecule itself; assay: SEC; analytical SEC of single proteins, Superdex S200 10/300 GL (or KW403-4F), apparent mass from standards of known Mr, n = 3
[9] = ligand concentration not in text, text says MTase domain, construct boundary not stated

“MRPP1N (N domain of MRPP1), expressed alone (from UniProt Q7L0Y3 40-203) (domain or fragment)” showed a stoichiometry N [1] of 2.

For `Nc1ncnc2c1ncn2[C@@H]1O[C@H](CO)[C@@H](OP(=O)(O)O)[C@H]1O` [3′-AMP], the Tm shift (MRPP1MT+C(Δ194); [9]) was 3.65 ± 0.16 °C.

`Nc1ncnc2c1ncn2[C@@H]1O[C@H](CSCC[C@H](N)C(=O)O)[C@@H](O)[C@H]1O` [S-adenosyl-homocysteine] showed a Tm shift (MRPP1MT+C(Δ194); [9]) of 5.00 ± 0.18 °C.

In the case of `C[S+](CC[C@H](N)C(=O)O)C[C@H]1O[C@@H](n2cnc3c(N)ncnc32)[C@H](O)[C@@H]1O` (stereo partly drawn) [SAM, S-adenosyl-L-methionine], the Tm shift (MRPP1ΔMTS) is reported as 6.04 ± 0.09 °C, the Tm shift (MRPP1MT+C(Δ194); 7.5 mM SAM) is reported as 9.75 ± 0.48 °C and the “X-ray crystal structure, 1.96 Å” value (MRPP1MT+C(Δ202)) is reported as “Each MRPP1MT subunit is bound by a SAM molecule”. For the same molecule, the Tm shift [2] was “retained their ability to bind the cofactor (NADH) and methyl donor (SAM)”.

With `NC(=O)C1=CN([C@@H]2O[C@H](COP(=O)(O)OP(=O)(O)OC[C@H]3O[C@@H](n4cnc5c(N)ncnc54)[C@H](O)[C@@H]3O)[C@@H](O)[C@H]2O)C=CC1` [NADH] the Tm shift [3] was “retained their ability to bind the cofactor (NADH) and methyl donor (SAM)”.

B1: MRPP2 (Homo sapiens) (protein)
chain: T4 sequence (Q99714 2-261 partner)
notes: full-length MRPP2, N-terminal His6 (pNIC28-Bsa4), TEV treated, E. coli; homotetramer
In the case of B1, the Km [4] is reported as 7.70 ± 0.50 µM.

B2: MRPP1ΔMTS–MRPP2 complex (SDR activity of MRPP2) (Homo sapiens) (protein)
chain: T4 sequence (Q99714 2-261 partner)
notes: co-expressed in E. coli; His-tagged mature MRPP1 (40-403) and untagged full-length MRPP2; 2:4 complex, 194 kDa by SEC-MALS; with tRNA methyltransferase 10 homolog C
In the case of B2, the Km [5] is reported as 3.40 ± 0.40 µM.

B3: MRPP2, untagged, co-expressed with His-tagged MRPP1 constructs (bicistronic plasmid), Q99714 1-261 (natural protein)
chain: T6 chain
B3 gave a stoichiometry N [6] of 4.

B4: MRPP2 (HSD17B10), expressed alone, tag removed, Q99714 1-261 (natural protein)
chain: T6 chain
Molecule B4 has a stoichiometry N [7] of 4.

B5: MRPP1_(ΔMTS) (mature mitochondrial RNase P protein 1, aa 40–403), expressed alone (natural protein, human, UniProt Q7L0Y3 40-403, looked up)
chain: T2 sequence (Q7L0Y3 40-403)
notes: human MRPP1 (TRMT10C/RG9MTD1), 403 aa precursor; residues 40-403, without the mitochondrial targeting signal (1-39); In solution a mixture of monomer and dimer; also called TRMT10C; RG9MTD1; source: E. coli BL21(DE3)-R3-pRARE2, purified
For B5, the “stoichiometry N” value [8] was 2.
